Experimental data from patent US20110207685A1, “Oral Formulations of Chemotherapeutic Agents” (priority 2008, published 2011).
≈ marks a conversion by molar mass, not a printed value. Where two headings read alike, the source gives them in different places. Each block holds one compound with its values, some of them ahead of it.

Columns and labels:
HT29 cells = assay: In vitro cytotoxicity on HT29 cells; assay type: cell-based; details: Homo sapiens
in vivo = details: mouse, plasma
Protocol: Three mice were used per time-point. Only one sampling was performed on the control group.

[1] = Oral MTTD (tolerance) study on xenografted mice; assay type: in vivo; details: for Clinical symptoms: po, J = 1 to 5, mice with s.c. HT-29 tumor
Protocol: A tolerance and efficacy study on xenografted mice, in order to mimic as close as possible the in vivo model of colonic tumor, was carried out. As xenografted mice are very sensitive, the MTTD and efficacy study was done on mice with a subcutaneously implanted HT-29 colorectal human tumor cells.

[2] = MTTD study, one administration per week during three weeks; assay type: in vivo, mice; details: J = 0, 7, 14
Protocol: The schedule of the MTTD studies was one administration per week during three weeks. Each dose was tested on a group of 3 animals and the animals were monitored for 2 weeks after the end of the last treatment, clinical toxicity signs were observed and the animals weight taken every two days.

[3] = Tolerance study (Step 1), relative body weight; assay type: in vivo, nude mice; details: oral IRN alone group (100 mg/kg po qd×5)
Protocol: When subcutaneous HT29 xenografts are detectable and reach a mean tumor volume of 150 mm3, groups of mice are randomly affected to the treatments. Mice without tumors were eliminated.
Mice in the control group received vehicle under a 750 μl volume.
Toxicity of the different treatments are determined as: body weight loss percent (% BWL max)=100−(mean BWx/mean BW1x 100), where BWx is the mean BW at the day of maximal loss during the treatment and BW1 is the mean BW on the 1st day of treatment.
All animals are weighted during the whole treatment period, in order to adjust the volume of drug administration and to calculate the percent body weight loss due to the different treatments.

physchem = details: phosphate buffer (control for the cyclodextrin mixtures), aqueous buffer
[4] = free drug; cited from earlier work

Compound: CCc1c2c(nc3ccc(OC(=O)N4CCC(N5CCCCC5)CC4)cc13)-c1cc3c(c(=O)n1C2)COC(=O)[C@]3(O)CC [IRN, Irinotecan]
IC50 (HT29 cells; HT-29, 96 h, read-out: IC50 [IRN], experiment GF411, HT29 cells, 4 days contact, as IRN concentration): 0.75 µg/mL (≈ 1.28 µM) | IC50 (HT29 cells; HT-29, 96 h, read-out: IC50 [IRN], experiment GF464, HT29 cells, 4 days contact, as IRN concentration): 0.8 µg/mL (≈ 1.36 µM) | IC50 (HT29 cells; HT-29, 96 h, read-out: IC50 [IRN], experiment GF522, HT29 cells, 4 days contact, as IRN concentration): 0.85 µg/mL (≈ 1.45 µM) | IC50 (HT29 cells; HT-29, read-out: Mean IC 50 [IRN], mean of three experiments, HT29 cells, as IRN concentration): 0.8 µg/mL (≈ 1.36 µM) | AUC (in vivo; iv, 20 mg/kg): 1280 ng·h/mL | bioavailability (in vivo; oral, 100 mg/Kg): 27.1% | AUC (in vivo; po, 100 mg/kg): 1740 ng·h/mL | Cmax (in vivo; po, 100 mg/kg): 477 ng/mL | Tmax (in vivo; po, 100 mg/kg): 2.06 h | toxicity / tolerance ([1]; orally every day for 5 days, xenografted mice): induced an important weight loss | Clinical symptoms ([1]; 100 mg/kg BW): Weight loss, but mice | Clinical symptoms ([1]; 200 mg/kg BW): Important weight loss | Clinical symptoms ([2]; iv, 25 mg/kg BW): No clinical sign | Clinical symptoms ([2]; po, 200 mg/kg BW): No clinical sign | body weight loss [3]: more than 15%

solubility (physchem): 1.9 ± 0.1 µg/mL (≈ 2.35 µM)
Compound: CC(=O)O[C@@]12CO[C@@H]1C[C@H](O)[C@@]1(C)C(=O)[C@H](O)C3=C(C)[C@@H](OC(=O)[C@H](O)[C@@H](NC(=O)OC(C)(C)C)c4ccccc4)C[C@@](O)([C@@H](OC(=O)c4ccccc4)[C@H]21)C3(C)C [docetaxel]

Compound: COc1cccc2c1C(=O)c1c(O)c3c(c(O)c1C2=O)C[C@@](O)(C(=O)CO)C[C@@H]3O[C@H]1C[C@H](N)[C@H](O)[C@H](C)O1 [doxorubicin, Doxorubicin]
oral bioavailability compare to i. v. bioavailability [4]: about 5%
